Experimental data from PMC9453727 (Cell Discovery, 2022).

Experiments:
in vitro = settings: PAMPA
[1] = in vivo, po; cited from earlier work
[2] = pH 5, permeability class PAMPA-GIT

| Structure (SMILES) | Papp (in vitro; [2]) [×10⁻⁶ cm/s] | Papp (in vitro; pH 5, Papp PAMPA-GIT, pH 5.0) [×10⁻⁶ cm/s] | Papp (in vitro; pH 6.2, Papp PAMPA-GIT, pH 6.2) [×10⁻⁶ cm/s] | Papp (in vitro; pH 7.4, Papp PAMPA-GIT, pH 7.4) [×10⁻⁶ cm/s] | half-life [1] |
| --- | --- | --- | --- | --- | --- |
| Cc1cc(=O)n(-c2ccccc2)n1C [Antipyrine] | < 1 | – | – | – | – |
| NC(=O)N1c2ccccc2C=Cc2ccccc21 [Carbamazepine] | > 20 | 135 | 158 | 160 | – |
| CC(C)(C)[C@H](NC(=O)C(F)(F)F)C(=O)N1C[C@H]2[C@@H]([C@H]1C(=O)N[C@H](C#N)C[C@@H]1CCNC1=O)C2(C)C [nirmatrelvir] | – | – | – | – | ~ 2 h |
